Test results reported in US20040235884A1, “Preventives/remedies for cholinergic neuropathy” (priority 2001, published 2004).

Key:
[1] = system: high-affinity choline uptake of hippocampal synaptosome (membrane sample); experiment: Effect on high-affinity choline uptake, [3H]choline, hippocampal synaptosome (membrane sample, P2 fraction) of AF64A-treated rats, in vitro incubation; format: biochemical, male Wistar rats; settings: membrane samples with choline uptake reduced by AF64A treatment; incubation 37° C. 30 min; FIG. 1
Method: The action of the compound of the formula (I), particularly 4-acylamino-5,6,7,8-tetrahydrofuro[2,3-b]quinoline derivative, on the high-affinity choline uptake was examined using [^3H] choline and hippocampal synaptosome (membrane sample). AF64A (3 μmol), which is a neurotoxin specific to the cholinergic nerve, was administered to male Wistar rats into the cerebral ventricles bilaterally. The rats were subjected to an experiment after a recovery period of about 10 days. Hippocampal membrane samples (P2 fraction) were prepared by a conventional method from these animals and the animals that underwent a sham operation. These membrane samples were incubated in Ringer's solution with Compound A at each concentration or a solvent (vehicle) at 37° C. for 30 min. [^3H] Choline was added to the reaction mixture, and the mixture was incubated for 10 min. After the completion of the incubation, the membrane samples were filtrated on a glass fiber filter using a cell harvester and washed three times with a buffer. After thorough drying, a scintillator was added and the radioactivity of the membrane samples was measured on a liquid scintillation counter. Non-specific uptake was done under ice-cooling.

AF64A-treated rats = experiment: Water maze-learning disorder test in AF64A-treated rats; format: in vivo; settings: FIG. 7
From the text: Because the compound of the formula (I), particularly 4-acylamino-5,6,7,8-tetrahydrofuro[2,3-b]quinoline derivative, has the above-mentioned mechanism, the promoting action on the high-affinity choline uptake is considered to be dependent on the density of high-affinity choline transporters on the nerve terminal, and therefore, to show a shift independent of the elimination rate of a drug. To clarify this point, the sustained promoting action on the high-affinity choline uptake was examined by monitoring the changes in efficacy when the aforementioned AF64A-treated rats were subjected to single and consecutive administration(s) of a drug. In the test, Compound A at each concentration or a solvent (vehicle) was administered singly or consecutively to AF64A-treated animals and the animals that underwent a sham operation. After a given time, the animals were slaughtered and hippocampal membrane samples (P2 fraction) were prepared by a conventional method. These membrane samples were incubated in Ringer's solution supplemented with [^3H) choline at 37° C. for 10 min. After the completion of the incubation, the membrane samples were filtrated on a glass fiber filter using a cell harvester and washed three times with a buffer. After thorough drying, a scintillator was added and the radioactivity of the membrane samples was measured on a liquid scintillation counter. […]

[2] = system: high-affinity choline uptake of hippocampal membrane samples; experiment: Sustention of action on high-affinity choline uptake: hippocampal membrane samples prepared after single or consecutive administration to AF64A-treated rats; format: in vivo; settings: for HACU promotion: FIG. 6
From the text: Because the compound of the formula (I), particularly 4-acylamino-5,6,7,8-tetrahydrofuro[2,3-b]quinoline derivative, has the above-mentioned mechanism, the promoting action on the high-affinity choline uptake is considered to be dependent on the density of high-affinity choline transporters on the nerve terminal, and therefore, to show a shift independent of the elimination rate of a drug. To clarify this point, the sustained promoting action on the high-affinity choline uptake was examined by monitoring the changes in efficacy when the aforementioned AF64A-treated rats were subjected to single and consecutive administration(s) of a drug. In the test, Compound A at each concentration or a solvent (vehicle) was administered singly or consecutively to AF64A-treated animals and the animals that underwent a sham operation. After a given time, the animals were slaughtered and hippocampal membrane samples (P2 fraction) were prepared by a conventional method. These membrane samples were incubated in Ringer's solution supplemented with [^3H) choline at 37° C. for 10 min. After the completion of the incubation, the membrane samples were filtrated on a glass fiber filter using a cell harvester and washed three times with a buffer. After thorough drying, a scintillator was added and the radioactivity of the membrane samples was measured on a liquid scintillation counter. The non-specific uptake was that in the presence of hemicholinium-3 (10 μM) in a sodium ion free Ringer's solution. To establish the close relationship between the efficacy observed here and an improving action on the dementia symptoms, the improving effect on the water maze-learning disorder observed in the AF64A-treated rats was also studied at a given time after drug administration for 8 consecutive days.

[3] = system: high-affinity choline transporter; experiment: [3H]hemicholinium-3 binding to hippocampal membrane samples after pre-incubation with drug; Scatchard-plot; design: species or system rats
Method: The action of the compound of the formula (I), particularly 4-acylamino-5,6,7,8-tetrahydrofuro[2,3-b]quinoline derivative, relative to the density of the high-affinity choline transporter on the nerve terminal was examined using [^3H]hemicholinium-3, which is a specific labeled ligand of a high-affinity choline transporter (SYNAPSE No. 1, pp. 293-303, 1987). The aforementioned AF64A-treated rats were used in this test, too. Hippocampal membrane samples (P2 fraction) were prepared according to a conventional method from the AF64A-treated animals and the sham operation animals. These membrane samples were incubated in Ringer's solution with Compound A at each concentration or a solvent (vehicle) at 37° C. for 30 min. After the completion of the incubation, the drug was removed from the reaction mixture by centrifugation at 4° C. and the membrane samples were washed. The drug-treated membrane samples thus obtained were suspended in a solution containing [^3H] hemicholinium-3, and incubated overnight at 4° C. […] After thorough drying, a scintillator was added and the radioactivity of the membrane samples was measured on a liquid scintillation counter. […] For the analysis of binding mode, Scatchard-plot was used and the maximum binding Bmax and dissociation constant Kd were calculated.

With `Cc1oc2nc3c(c(NC(=O)CN4CCCC4=O)c2c1C)CCCC3` [Compound A, 2-(2-oxopyrrolidin-1-yl)-N-(2,3-dimethyl-5,6,7,8-tetrahydrofuro[2,3-b)quinolin-4-yl)acetamide] the “choline uptake of hippocampal membrane samples” value [1] was “significantly improved”, the “improving effect on learning disorder (water maze)” value (AF64A-treated rats; 24 h after the administration for 8 consecutive days) was “significant improving effect on learning disorder” and the “improving effect on learning disorder (water maze)” value (AF64A-treated rats; 48 h after the administration for 8 consecutive days) was “significant improving effect on learning disorder”. For the same compound, the HACU promotion ([2]; 24 h after administration for 4 consecutive days) was “significant HACU promotion was not observed”, the HACU promotion ([2]; 24 h after administration for 16 consecutive days) was “same level of improving effect as with the administration for 8 consecutive days” and the HACU promoting action ([2]; administration for 8 consecutive days, 24 h from the final administration, FIG. 5) was “significant HACU promoting action was observed”. For the same compound, the HACU promoting action ([2]; administration for 8 consecutive days, 48 h later, FIG. 5) was “sustained”, the HACU promoting action ([2]; administration for 8 consecutive days, 72 h, FIG. 5) was “disappeared” and the HACU promoting action ([2]; single administration, 1 h after administration, FIG. 4) was “significant promotion of HACU”. The HACU promoting action ([2]; single administration, 3 h after administration, FIG. 4) was “significant promotion of HACU”, the HACU promoting action ([2]; single administration, 24 h later, FIG. 4) was “attenuated” and the “action on maximum binding Bmax of hemicholinium-3 (transporter number on membrane surface)” value ([3]; Scatchard-plot analysis, FIG. 3) was “increasing action on the maximum binding Bmax”. The “binding of [3H]hemicholinium-3 on the hippocampal membrane sample” value ([3]; incubation in advance with drug, 37° C. 30 min, FIG. 2) was “increased dose-dependently”.
